Data as given in US9845302B2, “Anticancer compounds and process for the preparation thereof” (Council of Scientific and Industrial Research, priority 2013, dated 2017).

Test system: HL60-HUVEC cell adhesion
Test: HL60-HUVEC cell adhesion inhibition, 8 point dose dependent assay (TNF-α stimulated, Calcein AM fluorometric)
Type: cell-based
Conditions: Homo sapiens; HUVEC dosed 2 hours with compound, 100 ng/mL TNF-α 4 hours, HL60 co-culture 30 mins
Experimental: Determination of Cell Adhesion Inhibition
An 8 point dose dependent assay was carried out to assess the IC50's of the test compounds.
10,000 HUVEC cells/well (passage number. 8) was seeded into a 96 well black clear bottom plate and cells were cultured for 4 days at 37° C. After the cell culture, HUVEC's were dosed with test compound and reference compound (peribysin E) at a top concentration of 100 μM (1:3 step down dilution-8 concentrations) and cells were cultured for 2 hours at 37° C. HUVEC's were treated with/without 100 ng/mL of TNF-α further cultured for 4 hours at 37° C. 100,000 HL60 cells/well (passage number. 16) was loaded with Calcein AM dye and co-cultured with HUVECs, and cells were cultured for 30 mins at 37° C. HL60-HUVEC cell adhesion was detected by a fluorometric method using a BMG Polarstar. (IC50=inhibition concentration at 50%). HL60-HUVEC Cell Adhesion-IC50 Assessment of Compound
With C=C1CO[C@@H](OC)[C@]12C[C@@H]1C=CC[C@@H](C)[C@]1(C)[C@H]2O (racemic) [Compound 9, (2R,2′R,3′R,3a′S,4′R,7a′R)-2-methoxy-3a′,4′-dimethyl-4-methylene 1′,3′,3a′,4,4′,5,5′,7a′-octahydro-2H-spiro[furan-3,2′-inden]-3′-ol] the IC50 was 18.7 µM.
In the case of C=C1CO[C@@H](OC)[C@]12C[C@@H]1[C@@H]3O[C@@H]3C[C@@H](C)[C@]1(C)[C@H]2O (racemic) [Compound 10, (1a′R,2R,3R,3′R,3a′S,4′R,6a′S,6b′S)-2-methoxy-3′,3a′-dimethyl-4-methylenedecahydro-2H-spiro[furan-3,5′-indeno[4,5-b]oxiren]-4′-ol], the IC50 is reported as 15.8 µM.
Molecule C=C1CO[C@@H](OC)[C@]12C[C@@H]1C[C@H](O)C[C@@H](C)[C@]1(C)[C@H]2O (racemic) [Compound 11a, (1′R,2R,2′R,3a′R,5′R,7′R,7a′S)-2-methoxy-7′,7a′-dimethyl-4-methylene decahydro-2H-spiro[furan-3,2′-indene]-1′,5′-diol] has an IC50 of 10.4 µM.
Molecule C=C1CO[C@@H](OC)[C@]12C[C@@H]1[C@H](O)CC[C@@H](C)[C@]1(C)[C@H]2O (racemic) [Compound 11b, (1′R,2R,2′R,3a′S,4′R,7′R,7a′S)-2-methoxy-7′,7a′-dimethyl-4-methylenedecahydro-2H-spiro[furan-3,2′-indene]-1′,4′-diol] has an IC50 of 4.28 µM.
C=C1CO[C@@H](OC)[C@]12C[C@@H]1[C@@H](O)CC[C@@H](C)[C@]1(C)[C@H]2O (racemic) [Compound 11c, (1′R,2R,2′R,3a′S,4′S,7′R,7a′S)-2-methoxy-7′,7a′-dimethyl-4-methylenedecahydro-2H-spiro[furan-3,2′-indene]-1′,4′-diol] showed an IC50 of 13.8 µM.
With C=C1CO[C@@H](OC)[C@]12C[C@@H]1CCC[C@@H](C)[C@]1(C)[C@H]2O (racemic) [Compound 20, (1′R,2R,2′R,3a′S,7′R,7a′S)-2-methoxy-7′,7a′-dimethyl-4-methylenedecahydro-2H-spiro[furan-3,2′-inden]-1′-ol] the IC50 was 11 µM.
C=C1CO[C@@H](OC)[C@]12C[C@@H]1C[C@@H](O)C[C@@H](C)[C@]1(C)[C@H]2O (racemic) [Peribysin E, (1′R,2R,2′R,3a′R,5′S,7′R,7a′S)-2-methoxy-7′,7a′-dimethyl-4-methylenedecahydro-2H-spiro[furan-3,2′-indene]-1′,5′-diol, reference compound] showed an IC50 of 6.9 to 12.2 µM.

Test system: adhesion of leukemia HL-60 cells to human-umbilical-vein endothelial cells (HUVEC)
Test: not given
Conditions: HL-60 cells to HUVEC; background statement; cited from earlier work
In the case of C=C1CO[C@@H](OC)[C@]12C[C@@H]1C[C@@H](O)C[C@@H](C)[C@]1(C)[C@H]2O (racemic) [Peribysin E, (1′R,2R,2′R,3a′R,5′S,7′R,7a′S)-2-methoxy-7′,7a′-dimethyl-4-methylenedecahydro-2H-spiro[furan-3,2′-indene]-1′,5′-diol, reference compound], the “cell adhesion inhibitory activity” value is given as “inhibit adhesion of leukemia HL-60 cells to human-umbilical-vein endothelial cells (HUVEC)”.
In the case of C=C1CO[C@@H](OC)[C@]12C[C@@H]1C[C@@H](O)C[C@@H](C)[C@]1(C)[C@H]2O [(−)-peribysin E], the “cell adhesion inhibitory activity” value is given as “more potent activity than the gold standard herbimycin”.
